Data taken from patent US9963442B2, “Pyridones as herbicides” (E I DU PONT DE NEMOURS AND COMPANY, priority 2014, dated 2018).

What was measured:
Format in all cases: in vivo
[1] = system: wheat (Triticum aestivum); assay: Test A postemergence application; details: approx. 10 days
How it was run: (§1)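 Visual injury scores on a 0–100 scale (100 = complete control), taken roughly 10 days after treatment in greenhouse relative to untreated plants. Seeded pots got a preemergence directed soil spray; postemergence sprays hit one- to two-leaf plants, 2–10 cm; formulation: solvent mixture with surfactant.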

[2] = system: ragweed (common ragweed, Ambrosia elatior); assay: Test A postemergence application; details: approx. 10 days
How it was run: as §1

[3] = system: giant foxtail (Setaria faberii); assay: Test C preemergence; details: scale 0 to 100, 0 is no effect, 100 is complete control
From the text: (§2) Seeds of plant species selected from blackgrass (Alopecurus myosuroides), Italian ryegrass (Lolium multiflorum), winter wheat (Triticum aestivum), galium (catchweed bedstraw, Galium aparine), corn (Zea mays), large (Lg) crabgrass (Digitaria sanguinalis), giant foxtail (Setaria faberii), johnsongrass (Sorghum halepense), lambsquarters (Chenopodium album), morningglory (Ipomoea coccinea), yellow nutsedge (Cyperus esculentus), pigweed (Amaranthus retroflexus), ragweed (common ragweed, Ambrosia elatior), soybean (Glycine max), barnyardgrass (Echinochloa crus-galli), oilseed rape (Brassica napus), waterhemp (common waterhemp, Amaranthus rudis), and velvetleaf (Abutilon theophrasti) were planted into a blend of loam soil and sand and treated preemergence with test chemicals formulated in a non-phytotoxic solvent mixture which included a surfactant. At the same time, plants selected from these crop and weed species and also chickweed (common chickweed, Stellaria media), kochia (Kochia scoparia), and wild oat (Avena fatua), were planted in pots containing Sunshine Redi-Earth® planting medium comprising spaghnum peat moss, vermiculite, starter nutrients and dolomitic limestone and treated with postemergence applications of test chemicals formulated in the same manner. Plants ranged in height from 2 to 18 cm (1- to 4-leaf stage) for postemergence treatments. Treated plants and controls were maintained in a greenhouse for 13 to 15 days, after which time all species were compared to controls and visually evaluated. Plant response ratings, summarized in Table C, are based on a scale of 0 to 100 where 0 is no effect and 100 is complete control. A dash (-) response means no test result.

[4] = system: waterhemp (common waterhemp, Amaranthus rudis); assay: Test C preemergence; details: scale 0 to 100, 0 is no effect, 100 is complete control
From the text: as §2

[5] = system: large (Lg) crabgrass (Digitaria sanguinalis); assay: Test C preemergence; details: scale 0 to 100, 0 is no effect, 100 is complete control
From the text: as §2

[6] = system: winter wheat (Triticum aestivum); assay: Test C preemergence; details: scale 0 to 100, 0 is no effect, 100 is complete control
From the text: as §2

[7] = system: morningglory (Ipomoea coccinea); assay: Test C preemergence; details: scale 0 to 100, 0 is no effect, 100 is complete control
From the text: as §2

[8] = system: pigweed (Amaranthus retroflexus); assay: Test C preemergence; details: scale 0 to 100, 0 is no effect, 100 is complete control
From the text: as §2

[9] = system: johnsongrass (Sorghum halepense); assay: Test C preemergence; details: scale 0 to 100, 0 is no effect, 100 is complete control
From the text: as §2

[10] = system: velvetleaf (Abutilon theophrasti); assay: Test C preemergence; details: scale 0 to 100, 0 is no effect, 100 is complete control
From the text: as §2

[11] = system: yellow nutsedge (Cyperus esculentus); assay: Test C preemergence; details: scale 0 to 100, 0 is no effect, 100 is complete control
From the text: as §2

soybean (Glycine max) = assay: Test C preemergence; details: 31 g ai/ha, scale 0 to 100, 0 is no effect, 100 is complete control
From the text: as §2

[12] = system: barnyardgrass (Echinochloa crus-galli); assay: Test C preemergence; details: scale 0 to 100, 0 is no effect, 100 is complete control
From the text: as §2

[13] = system: Italian ryegrass (Lolium multiflorum); assay: Test C preemergence; details: scale 0 to 100, 0 is no effect, 100 is complete control
From the text: as §2

[14] = system: blackgrass (Alopecurus myosuroides); assay: Test C preemergence; details: scale 0 to 100, 0 is no effect, 100 is complete control
From the text: as §2

[15] = system: oilseed rape (Brassica napus); assay: Test C preemergence; details: scale 0 to 100, 0 is no effect, 100 is complete control
From the text: as §2

[16] = system: lambsquarters (Chenopodium album); assay: Test C preemergence; details: scale 0 to 100, 0 is no effect, 100 is complete control
From the text: as §2

[17] = system: ragweed (common ragweed, Ambrosia elatior); assay: Test C preemergence; details: scale 0 to 100, 0 is no effect, 100 is complete control
From the text: as §2

corn (Zea mays) = assay: Test C preemergence; details: scale 0 to 100, 0 is no effect, 100 is complete control
From the text: as §2

[18] = system: galium (catchweed bedstraw, Galium aparine); assay: Test C preemergence; details: scale 0 to 100, 0 is no effect, 100 is complete control
From the text: as §2

O=c1cccc(Oc2ncc(Cl)cn2)n1-c1ccc(C(F)(F)F)cc1 [Compound 10]
Plant response rating (0 to 100 scale, 0 no effect, 100 complete control), Wheat ([1]; 31 g ai/ha): 0 | Plant response rating (0 to 100 scale, 0 no effect, 100 complete control), Wheat ([1]; 125 g ai/ha): 10 | Plant response rating (0 to 100 scale, 0 no effect, 100 complete control), Ragweed ([2]; 31 g ai/ha): 10 | Plant response rating (0 to 100 scale, 0 no effect, 100 complete control), Ragweed ([2]; 125 g ai/ha): 20 | Plant response rating, Foxtail, Giant ([3]; 16 g ai/ha): 55 | Plant response rating, Foxtail, Giant ([3]; 31 g ai/ha): 90 | Plant response rating, Foxtail, Giant ([3]; 62 g ai/ha): 100 | Plant response rating, Foxtail, Giant ([3]; 125 g ai/ha): 100 | Plant response rating, Waterhemp ([4]; 16 g ai/ha): 70 | Plant response rating, Waterhemp ([4]; 31 g ai/ha): 95 | Plant response rating, Waterhemp ([4]; 62 g ai/ha): 100 | Plant response rating, Waterhemp ([4]; 125 g ai/ha): 100 | Plant response rating, Crabgrass, Large ([5]; 16 g ai/ha): 75 | Plant response rating, Crabgrass, Large ([5]; 31 g ai/ha): 98 | Plant response rating, Crabgrass, Large ([5]; 62 g ai/ha): 100 | Plant response rating, Crabgrass, Large ([5]; 125 g ai/ha): 100 | Plant response rating, Wheat ([6]; 16 g ai/ha): 0 | Plant response rating, Wheat ([6]; 31 g ai/ha): 0 | Plant response rating, Wheat ([6]; 62 g ai/ha): 5 | Plant response rating, Wheat ([6]; 125 g ai/ha): 5 | Plant response rating, Morningglory ([7]; 16 g ai/ha): 0 | Plant response rating, Morningglory ([7]; 31 g ai/ha): 0 | Plant response rating, Morningglory ([7]; 62 g ai/ha): 15 | Plant response rating, Morningglory ([7]; 125 g ai/ha): 55 | Plant response rating, Pigweed ([8]; 16 g ai/ha): 55 | Plant response rating, Pigweed ([8]; 31 g ai/ha): 65 | Plant response rating, Pigweed ([8]; 62 g ai/ha): 100 | Plant response rating, Pigweed ([8]; 125 g ai/ha): 100 | Plant response rating, Johnsongrass ([9]; 16 g ai/ha): 0 | Plant response rating, Johnsongrass ([9]; 31 g ai/ha): 5 | Plant response rating, Johnsongrass ([9]; 62 g ai/ha): 35 | Plant response rating, Johnsongrass ([9]; 125 g ai/ha): 70 | Plant response rating, Velvetleaf ([10]; 16 g ai/ha): 0 | Plant response rating, Velvetleaf ([10]; 31 g ai/ha): 20 | Plant response rating, Velvetleaf ([10]; 62 g ai/ha): 40 | Plant response rating, Velvetleaf ([10]; 125 g ai/ha): 55 | Plant response rating, Nutsedge, Yellow ([11]; 16 g ai/ha): 0 | Plant response rating, Nutsedge, Yellow ([11]; 31 g ai/ha): 0 | Plant response rating, Nutsedge, Yellow ([11]; 62 g ai/ha): 0 | Plant response rating, Nutsedge, Yellow ([11]; 125 g ai/ha): 0 | Plant response rating, Soybean (soybean (Glycine max)): 20 | Plant response rating, Barnyardgrass ([12]; 16 g ai/ha): 15 | Plant response rating, Barnyardgrass ([12]; 31 g ai/ha): 55 | Plant response rating, Barnyardgrass ([12]; 62 g ai/ha): 75 | Plant response rating, Barnyardgrass ([12]; 125 g ai/ha): 98 | Plant response rating, Ryegrass, Italian ([13]; 16 g ai/ha): 0 | Plant response rating, Ryegrass, Italian ([13]; 31 g ai/ha): 10 | Plant response rating, Ryegrass, Italian ([13]; 62 g ai/ha): 90 | Plant response rating, Ryegrass, Italian ([13]; 125 g ai/ha): 85 | Plant response rating, Blackgrass ([14]; 16 g ai/ha): 15 | Plant response rating, Blackgrass ([14]; 31 g ai/ha): 60 | Plant response rating, Blackgrass ([14]; 62 g ai/ha): 95 | Plant response rating, Blackgrass ([14]; 125 g ai/ha): 95 | Plant response rating, Oilseed Rape ([15]; 16 g ai/ha): 0 | Plant response rating, Oilseed Rape ([15]; 31 g ai/ha): 10 | Plant response rating, Oilseed Rape ([15]; 62 g ai/ha): 70 | Plant response rating, Oilseed Rape ([15]; 125 g ai/ha): 80 | Plant response rating, Lambsquarters ([16]; 16 g ai/ha): 35 | Plant response rating, Lambsquarters ([16]; 31 g ai/ha): 25 | Plant response rating, Lambsquarters ([16]; 62 g ai/ha): 35 | Plant response rating, Lambsquarters ([16]; 125 g ai/ha): 75 | Plant response rating, Ragweed ([17]; 16 g ai/ha): 35 | Plant response rating, Ragweed ([17]; 31 g ai/ha): 25 | Plant response rating, Ragweed ([17]; 62 g ai/ha): 25 | Plant response rating, Ragweed ([17]; 125 g ai/ha): 65 | Plant response rating, Corn (corn (Zea mays); 16 g ai/ha): 0 | Plant response rating, Corn (corn (Zea mays); 31 g ai/ha): 0 | Plant response rating, Corn (corn (Zea mays); 62 g ai/ha): 10 | Plant response rating, Corn (corn (Zea mays); 125 g ai/ha): 5 | Plant response rating, Galium ([18]; 16 g ai/ha): 0 | Plant response rating, Galium ([18]; 31 g ai/ha): 80 | Plant response rating, Galium ([18]; 62 g ai/ha): 60 | Plant response rating, Galium ([18]; 125 g ai/ha): 98
